Values of other authors in US20150374773A1, “Homeopathic Composition Comprising Hypericum Perforatum Extract And Essential Oils For The Treatment Of Neuropathic Pain” (NEURAGEN CORP., priority 2008, published 2015).

Tested on: neuropathic pain
Conditions: literature statement

| Structure (SMILES) | efficacy in neuropathic pain |
| --- | --- |
| Nc1nnc(-c2cccc(Cl)c2Cl)c(N)n1 [Lamotrigine] | no better than placebo |
| NCC1(CC(=O)O)CCCCC1 [gabapentin] | effective in painful diabetic neuropathy, mixed neuropathies, and postherpetic neuralgia |
